Source: article PMC10350920, “Development of a 2,4-Diaminothiazole Series for the Treatment of Human African Trypanosomiasis Highlights the Importance of Static–Cidal Screening of Analogues” (Journal of Medicinal Chemistry, 2023)

How the values were obtained:
[1] = test system: BSF T. b. brucei “single marker” S427; assay: Drug sensitivity assay with bloodstream-form T. brucei; assay type: cell-based; details: for EC50: mean values, number of replicates in parentheses
Description: (§1) Drug sensitivity assays with BSF T. b. brucei “single marker” S427 and human MRC-5 fibroblasts were conducted as previously described.[43]

[2] = Mammalian cell counter screen (MRC-5); assay type: cell-based, human; details: human, MRC-5 fibroblasts; mean values; number of replicates in parentheses
Description: as §1

human MRC-5 fibroblasts = assay: Mammalian cell counter screen (MRC-5); assay type: cell-based; details: for SI: selectivity index (EC50 MRC5/EC50 T. brucei)
Description: as §1

[3] = Mouse liver microsomal intrinsic clearance; assay type: in vitro ADME
Description: Test compounds (0.5 μM) were incubated with female CD1 mouse liver microsomes (Xenotech LLC; 0.5 mg mL^–1 50 mM potassium phosphate buffer, pH 7.4), and the reaction started with the addition of excess NADPH (8 mg mL^–1 50 mM potassium phosphate buffer, pH 7.4). Immediately, at 0 min, and then at 3, 6, 9, 15, and 30 min, an aliquot (50 μL) of the incubation mixture was removed and mixed with acetonitrile (100 μL) to stop the reaction. The internal standard was added to all samples, the samples were centrifuged to sediment the precipitated protein, and the plates were then sealed prior to UPLC–MS/MS analysis using a Quattro Premier XE (Waters Corporation, USA). XLfit (IDBS, UK) was used to calculate the exponential decay and consequently the rate constant (k) from the ratio of the peak area of the test compound to the internal standard at each time point. The rate of intrinsic clearance (CLint) of each test compound was then calculated using the following calculation [drawing 3] where V (mL mg^–1 protein) is the incubation volume mg^–1 protein added and the microsomal protein yield is taken as 52.5 mg protein g^–1 liver. Verapamil (0.5 μM) was used as a positive control to confirm acceptable assay performance.

[4] = Rat microsomal intrinsic clearance; assay type: in vitro ADME; details: second value of mouse/rat cell
[5] = Mouse brain penetration (brain:blood ratio); assay type: in vivo, female NMRI mice; details: female, NMRI, mouse, brain and blood, 10 mg kg^–1; mice, bolus of test compound, total compound; read-out: brain/blood (B/B) ratio
Description: Medicines for HAT are required to treat both acute and chronic infections, where parasites pass through the blood/brain barrier and enter the CNS. With this in mind, mice were dosed with an […] bolus of our test compounds, and compound concentrations in blood and brain were determined by UPLC–MS/MS. […] The brain fraction unbound was 0.0063 for 16 and 0.0313 for 38. Brain penetration of the series as a whole tracked with the generally accepted rules of CNS penetration, with a lower topological PSA (TPSA) and molecular weight compounds having an increased B/B ratio (Table S2 and Figure S1). However, the link between log P and the B/B ratio was slightly less convincing. […] This difference could be explained by 18 being a substrate for the P-glycoprotein efflux pump.
Each compound was dosed as an IV bolus at 10 mg kg^–1 dissolved in 15% solutol/Milli-Q (dose volume 10 mL kg^–1) to female NMRI mice (n = 3). At 30 min following the IV bolus of the test compound, mice (n = 3/time point) were placed under terminal anesthesia with isoflurane. A blood sample was taken by cardiac puncture and added to two volumes of distilled water, and the brain was removed. […] For each mouse at each time point, the concentration in the brain (ng g^–1) was divided by the concentration in blood (ng mL^–1) to give a brain: blood ratio.

| Compound | EC50 ([1]; Trypanosoma brucei) [nM] | EC50 [2] [µM] | SI (human MRC-5 fibroblasts) | CLint (mouse) [3] [mL·min/g] | CLint (rat) [4] [mL·min/g] | improvement in activity against T. brucei relative to parent analogue ([1]; SAR comparison) [fold] | reduction (loss, drop off) in potency against T. brucei relative to parent analogue ([1]; SAR comparison) [fold] | EC50 [1] [nM] | EC50 (human MRC-5 fibroblasts; mean values, number of replicates in parentheses, read-out: MRC-5 EC50) [µM] | Kp at 30 min [5] |
| --- | --- | --- | --- | --- | --- | --- | --- | --- | --- | --- |
| Nc1nc(Nc2ccc(F)c(F)c2)sc1C(=O)COC1CC(F)(F)C1(F)F (centres unmarked) [Compound 47, 1-(4-Amino-2-((3,4-difluorophenyl)amino)thiazol-5-yl)-2-(2,2,3,3-tetrafluorocyclobutoxy)ethanone] | 10 | 29 | 2900 | 5.2 | 4.4 | – | – | – | – | – |
| Nc1nc(Nc2ccc(F)c(F)c2)sc1C(=O)CN1CCCCC1 [Compound 61, 1-(4-Amino-2-((3,4-difluorophenyl)amino)thiazol-5-yl)-2-(piperidin-1-yl)ethanone] | 60 | 49 | 816 | 7.7 | 6.7 | – | – | – | – | – |
| CC(C)OCC(=O)c1sc(Nc2ccc(F)c(F)c2)nc1N [Compound 42, 1-(4-Amino-2-((3,4-difluorophenyl)amino)thiazol-5-yl)-2-isopropoxyethanone] | 20 | > 50 | 2500 | 9.3 | 3.6 | 10 | – | – | – | – |
| CC(OCC(=O)c1sc(Nc2ccc3c(c2)OC(F)(F)O3)nc1N)C(F)(F)F (centres unmarked) [Compound 53, 1-(4-Amino-2-((2,2-difluorobenzo[d][1,3]dioxol-5-yl)amino)thiazol-5-yl)-2-((1,1,1-trifluoropropan-2-yl)oxy)ethan-1-one] | 30 | > 50 | 1667 | 5 | 1.2 | – | – | – | – | – |
| Nc1nc(Nc2ccc(F)c(F)c2)sc1C(=O)CN1CCOCC1 [Compound 62, 1-(4-Amino-2-((3,4-difluorophenyl)amino)thiazol-5-yl)-2-morpholinoethanone] | 40 | > 50 | – | 4.7 | 9 | – | – | – | – | – |
| COc1ccc(Nc2nc(N)c(C(=O)COC(C)C(F)(F)F)s2)cn1 (centres unmarked) [Compound 57, 1-(4-Amino-2-((6-methoxypyridin-3-yl)amino)thiazol-5-yl)-2-((1,1,1-trifluoropropan-2-yl)oxy)ethanone] | 70 | > 50 | 714 | 9.0 | 2.4 | – | – | – | – | – |
| CC1CCCN1CC(=O)c1sc(Nc2ccc(F)c(F)c2)nc1N (centres unmarked) [Compound 59, 1-(4-Amino-2-((3,4-difluorophenyl)amino)thiazol-5-yl)-2-(2-methylpyrrolidin-1-yl)ethanone] | 50 | > 50 | 1000 | 5.2 | 3.1 | – | – | – | – | – |
| CC(OCC(=O)c1sc(Nc2ccc(C(F)(F)F)cc2)nc1N)C(F)(F)F (centres unmarked) [Compound 52, 1-(4-Amino-((4-(trifluoromethyl)phenyl)amino)thiazol-5-yl)-2-((1,1,1-trifluoropropan-2-yl)oxy)ethanone] | 70 | 38 | 543 | 2.3 | 0.5 | – | 10 | – | – | – |
| CC(OCC(=O)c1sc(Nc2ccc(F)c(F)c2)nc1N)C(F)(F)F (centres unmarked) [Compound 50, 1-(4-Amino-2-((3,4-difluorophenyl)amino)thiazol-5-yl)-2-((1,1,1-trifluoropropan-2-yl)oxy)ethanone] | 6 | > 50 | 8333 | 7.4 | 2.9 | – | – | – | – | – |
| Nc1nc(Nc2ccc(F)c(F)c2)sc1C(=O)CN1CCCC(F)(F)C1 [Compound 67, 1-(4-Amino-2-((3,4-difluorophenyl)amino)thiazol-5-yl)-2-(3,3-difluoropiperidin-1-yl)ethanone] | 20 | 5 | 250 | 33 | 20 | – | – | – | – | – |
| 1-(4-Amino-2-((3,4-difluorophenyl)amino)thiazol-5-yl)-2-((2S,6R)-2,6-dimethylmorpholino)ethanone [Compound 63] | – | – | 1000 | 8.1 | 4.9 | – | – | 50 | > 50 | – |
| Nc1nc(Nc2ccc(F)c(F)c2)sc1C(=O)CN1CCCC1C(F)(F)F (centres unmarked) [Compound 60, 1-(4-Amino-2-((3,4-difluorophenyl)amino)thiazol-5-yl)-2-(2-(trifluoromethyl)pyrrolidin-1-yl)ethanone] | 20 | 32 | 1600 | 26 | 10 | – | – | – | – | – |
| Nc1nc(Nc2ccc(F)c(F)c2)sc1C(=O)COC1CCC1 [Compound 46, 1-(4-Amino-2-((3,4-difluorophenyl)amino)thiazol-5-yl)-2-cyclobutoxyethanone] | 20 | > 50 | 2500 | 9 | 8.2 | – | – | – | – | – |
| Nc1nc(Nc2ccc(F)c(F)c2)sc1C(=O)CN1C[C@@H]2C[C@H]1CO2 [Compound 65, 1-(4-Amino-2-((3,4-difluorophenyl)amino)thiazol-5-yl)-2-((1S,4S)-2-oxa-5-azabicyclo[2.2.1]heptan-5-yl)ethanone] | 40 | > 50 | 1250 | 4.1 | 4.9 | – | – | – | – | – |
| Nc1nc(Nc2ccc(F)c(F)c2)sc1C(=O)CN1C[C@H]2CC[C@@H](C1)O2 [Compound 66, 1-(4-Amino-2-((3,4-difluorophenyl)amino)thiazol-5-yl)-2-((1R,5S)-8-oxa-3-azabicyclo[3.2.1]octan-3-yl)ethanone] | 110 | > 50 | 455 | 8.8 | 15.1 | – | – | – | – | – |
| Nc1nc(Nc2ccc(F)c(F)c2)sc1C(=O)CN1CCCC1 [Compound 58, 1-(4-Amino-2-((3,4-difluorophenyl)amino)thiazol-5-yl)-2-(pyrrolidin-1-yl)ethanone] | 90 | 48 | 533 | 2.1 | 2.2 | – | – | – | – | – |
| Nc1nc(Nc2ccc(F)c(F)c2)sc1C(=O)CCN1CCOCC1 [Compound 64, 1-(4-Amino-2-((3,4-difluorophenyl)amino)thiazol-5-yl)-3-morpholinopropan-1-one] | 5000 | 29 | 6 | 1.2 | 8.3 | – | > 110 | – | – | – |
| Nc1nc(Nc2ccc(F)c(F)c2)sc1C(=O)CN1CCC(F)(F)CC1 [Compound 68, 1-(4-Amino-2-((3,4-difluorophenyl)amino)thiazol-5-yl)-2-(4,4-difluoropiperidin-1-yl)ethanone] | 20 | 47 | 2350 | 9.3 | 11 | – | – | – | – | – |
| Nc1nc(NC2CCCCC2)sc1C(=O)c1ccncc1 [Compound 25, (4-Amino-2-(cyclohexylamino)thiazol-5-yl)(pyridine-4-yl)methanone] | 460 | 19 | 41 | 4.1 | – | – | – | – | – | – |
| CC(C)C(=O)c1sc(NC2CCCCC2)nc1N [Compound 18, 1-(4-Amino-2-(cyclohexylamino)thiazol-5-yl)-2-methylpropan-1-one] | 2400 | 10 | 4 | 0.5 | – | – | – | – | – | 0.06 |
